From ChEMBL document CHEMBL1135703, “Synthesis and biological activity of a novel class of small molecular weight peptidomimetic competitive inhibitors of protein tyrosine phosphatase 1B” (2002)

Key:
[1] = Uptake of 2-deoxyglucose into L-6 myocytes, measurements were taken in absence of insulin (basal), assayed at 100 uM; format: functional
[2] = target: T1, Tyrosine-protein phosphatase non-receptor type 1 (Homo sapiens) (UniProt P18031); experiment: Percent inhibition of Protein Tyrosine Phosphatase 1B (PTP 1B) assayed at 100 uM
T1 sequence (whole entry): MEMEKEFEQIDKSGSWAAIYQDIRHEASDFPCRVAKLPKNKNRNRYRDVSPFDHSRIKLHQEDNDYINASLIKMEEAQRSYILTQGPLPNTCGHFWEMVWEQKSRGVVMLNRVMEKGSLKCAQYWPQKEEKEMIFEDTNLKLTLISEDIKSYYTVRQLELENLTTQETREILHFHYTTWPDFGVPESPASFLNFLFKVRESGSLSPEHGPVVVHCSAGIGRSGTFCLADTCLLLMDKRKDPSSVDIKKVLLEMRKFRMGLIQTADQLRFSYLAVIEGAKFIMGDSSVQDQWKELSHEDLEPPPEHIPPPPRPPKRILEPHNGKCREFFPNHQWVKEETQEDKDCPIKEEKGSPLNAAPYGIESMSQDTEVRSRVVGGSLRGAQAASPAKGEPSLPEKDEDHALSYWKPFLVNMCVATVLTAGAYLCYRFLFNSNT

[3] = target: Receptor-type tyrosine-protein phosphatase F (Homo sapiens) (UniProt P10586); experiment: Percent inhibition of Protein-tyrosine phosphatase Lar assayed at 100 uM
Chain of Receptor-type tyrosine-protein phosphatase F (Homo sapiens) (P10586 whole entry, the tested form may be a part): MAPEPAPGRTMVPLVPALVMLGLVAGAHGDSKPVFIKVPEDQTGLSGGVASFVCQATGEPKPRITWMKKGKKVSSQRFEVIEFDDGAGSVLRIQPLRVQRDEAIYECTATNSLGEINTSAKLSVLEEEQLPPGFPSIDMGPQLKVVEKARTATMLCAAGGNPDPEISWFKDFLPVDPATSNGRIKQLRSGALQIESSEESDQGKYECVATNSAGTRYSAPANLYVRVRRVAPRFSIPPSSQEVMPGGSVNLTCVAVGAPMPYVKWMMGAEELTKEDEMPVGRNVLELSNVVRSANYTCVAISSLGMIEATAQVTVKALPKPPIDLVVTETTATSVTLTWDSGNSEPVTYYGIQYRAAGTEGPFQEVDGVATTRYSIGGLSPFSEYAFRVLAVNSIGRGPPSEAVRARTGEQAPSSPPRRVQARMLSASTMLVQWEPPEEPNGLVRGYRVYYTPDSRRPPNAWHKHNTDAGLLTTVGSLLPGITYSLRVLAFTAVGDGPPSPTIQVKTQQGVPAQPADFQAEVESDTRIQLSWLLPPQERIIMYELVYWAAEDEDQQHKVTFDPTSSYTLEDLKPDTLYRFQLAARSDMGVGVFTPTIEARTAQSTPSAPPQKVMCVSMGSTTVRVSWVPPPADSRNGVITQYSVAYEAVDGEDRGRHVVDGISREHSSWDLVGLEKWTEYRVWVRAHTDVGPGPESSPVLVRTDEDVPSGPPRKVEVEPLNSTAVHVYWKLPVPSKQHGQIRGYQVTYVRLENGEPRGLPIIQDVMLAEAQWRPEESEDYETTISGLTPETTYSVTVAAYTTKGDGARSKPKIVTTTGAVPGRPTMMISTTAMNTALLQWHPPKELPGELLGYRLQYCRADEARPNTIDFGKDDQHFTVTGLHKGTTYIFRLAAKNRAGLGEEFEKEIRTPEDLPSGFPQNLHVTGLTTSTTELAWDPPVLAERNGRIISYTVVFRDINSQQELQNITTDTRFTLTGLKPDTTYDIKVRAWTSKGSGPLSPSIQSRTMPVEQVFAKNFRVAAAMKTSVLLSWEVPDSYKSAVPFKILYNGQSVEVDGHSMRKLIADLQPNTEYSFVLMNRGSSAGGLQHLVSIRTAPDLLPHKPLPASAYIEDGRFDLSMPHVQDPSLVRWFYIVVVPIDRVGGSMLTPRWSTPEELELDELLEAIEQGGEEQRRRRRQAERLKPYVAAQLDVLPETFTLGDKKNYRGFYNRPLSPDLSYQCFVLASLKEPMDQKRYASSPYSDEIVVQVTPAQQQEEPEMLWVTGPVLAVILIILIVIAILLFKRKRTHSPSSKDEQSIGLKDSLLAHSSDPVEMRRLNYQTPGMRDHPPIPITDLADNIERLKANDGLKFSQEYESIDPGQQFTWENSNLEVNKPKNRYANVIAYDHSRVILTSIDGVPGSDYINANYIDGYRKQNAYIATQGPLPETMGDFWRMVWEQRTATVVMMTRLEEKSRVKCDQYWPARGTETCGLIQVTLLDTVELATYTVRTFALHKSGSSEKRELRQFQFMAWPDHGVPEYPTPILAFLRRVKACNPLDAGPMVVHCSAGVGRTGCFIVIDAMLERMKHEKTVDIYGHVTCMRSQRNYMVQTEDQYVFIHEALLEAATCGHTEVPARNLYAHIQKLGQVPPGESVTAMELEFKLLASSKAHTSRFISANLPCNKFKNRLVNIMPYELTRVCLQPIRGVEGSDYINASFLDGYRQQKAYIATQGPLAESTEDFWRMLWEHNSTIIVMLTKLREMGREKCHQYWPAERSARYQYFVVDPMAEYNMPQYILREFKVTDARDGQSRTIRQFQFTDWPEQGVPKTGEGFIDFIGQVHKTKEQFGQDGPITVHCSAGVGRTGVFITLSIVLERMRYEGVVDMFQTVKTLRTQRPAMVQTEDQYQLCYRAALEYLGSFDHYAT

[4] = target: T2, Tyrosine-protein phosphatase non-receptor type 11 (Mus musculus) (UniProt P35235); experiment: (§1) Percent inhibition of Tyrosine phosphatase SHP2 SH2 domain containing PTP involved in insulin uM; parameters: concentration or dose not given beside the values; conditions: concentration not given here
T2 sequence (whole entry): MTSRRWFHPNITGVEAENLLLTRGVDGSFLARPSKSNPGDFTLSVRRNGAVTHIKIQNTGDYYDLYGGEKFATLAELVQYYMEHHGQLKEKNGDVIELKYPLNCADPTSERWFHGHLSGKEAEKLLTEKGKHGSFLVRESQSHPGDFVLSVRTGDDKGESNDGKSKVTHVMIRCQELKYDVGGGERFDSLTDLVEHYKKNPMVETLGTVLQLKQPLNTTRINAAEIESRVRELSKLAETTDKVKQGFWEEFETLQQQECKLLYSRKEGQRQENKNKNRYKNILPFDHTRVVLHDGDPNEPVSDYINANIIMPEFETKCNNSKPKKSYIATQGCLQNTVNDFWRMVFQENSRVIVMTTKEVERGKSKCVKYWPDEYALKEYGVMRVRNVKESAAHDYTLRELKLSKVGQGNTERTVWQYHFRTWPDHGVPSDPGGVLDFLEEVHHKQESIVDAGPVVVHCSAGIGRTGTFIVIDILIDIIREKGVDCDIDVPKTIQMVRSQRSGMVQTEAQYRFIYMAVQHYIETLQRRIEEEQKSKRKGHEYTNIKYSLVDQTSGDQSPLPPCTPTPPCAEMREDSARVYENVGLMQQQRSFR

[5] = Uptake of 2-deoxyglucose into L-6 myocytes, measurements were taken in presence of insulin (+ins), assayed at 100 uM; format: functional
[6] = target: T2, Tyrosine-protein phosphatase non-receptor type 11 (Mus musculus); experiment: as §1; conditions: concentration not given here
[7] = target: T3, Tyrosine-protein phosphatase non-receptor type 1 (Rattus norvegicus) (UniProt P20417); experiment: Percent inhibition of Protein-tyrosine phosphatase 1 (PTP) assayed at 100 uM
T3 sequence (whole entry): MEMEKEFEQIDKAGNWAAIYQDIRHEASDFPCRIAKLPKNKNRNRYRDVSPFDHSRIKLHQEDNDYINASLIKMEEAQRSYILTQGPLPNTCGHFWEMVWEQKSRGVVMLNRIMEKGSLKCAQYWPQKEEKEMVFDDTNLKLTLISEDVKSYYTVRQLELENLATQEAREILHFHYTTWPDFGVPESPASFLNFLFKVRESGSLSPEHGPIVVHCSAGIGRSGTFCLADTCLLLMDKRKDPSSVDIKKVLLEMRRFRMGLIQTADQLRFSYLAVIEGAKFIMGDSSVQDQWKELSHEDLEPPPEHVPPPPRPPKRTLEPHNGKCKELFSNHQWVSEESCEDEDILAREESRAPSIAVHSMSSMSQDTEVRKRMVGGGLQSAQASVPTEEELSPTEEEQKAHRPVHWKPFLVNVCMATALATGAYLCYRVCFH

Compound	2-deoxyglucose uptake, % of control [1] [%]	inhibition [2] [%]	inhibition [3] [%]	inhibition [4] [%]	2-deoxyglucose uptake, % of control [5] [%]	inhibition [6] [%]	inhibition [7] [%]
CCCCCNC(=O)C(Cc1ccc(OCC(=O)O)c(C(=O)O)c1)NC(=O)[C@H](Cc1ccccc1)NC(=O)CCC(=O)O (some centres undefined)	105	93	0	10	83		
CCCCCNC(=O)C(Cc1ccc(OCC(=O)OC)c(C(=O)OC)c1)NC(=O)[C@H](Cc1ccccc1)NC(=O)CCC(=O)OC (some centres undefined)	225	0	3	0	77		
CCCCCNC(=O)C(Cc1ccc(OS(=O)(=O)O)cc1)NC(=O)CCC(=O)O (centres undefined)		51	5			6	80
CCCCCNC(=O)C(Cc1ccc(OCC(=O)OC)c(C(=O)OC)c1)NC(=O)[C@H](Cc1ccccc1)NC(=O)OC(C)(C)C (some centres undefined)	114	0	0	1	72		
CCCCCNC(=O)C(Cc1ccc(OCC(N)=O)c(C(=O)O)c1)NC(=O)CCC(=O)O (centres undefined)		5	0	2			16
CCCCCNC(=O)[C@H](Cc1ccc(OCC(=O)O)c(C(=O)O)c1)NC(=O)[C@@H](Cc1ccccc1)NC(=O)OC(C)(C)C	107	19	0	0	89		
CCCCCNC(=O)C(Cc1ccc(OC(C(=O)O)C(=O)O)cc1)NC(=O)[C@H](Cc1ccccc1)NC(=O)OC(C)(C)C (some centres undefined)		91	27	10			88
CCCCCNC(=O)C(Cc1ccc(OCC(=O)O)c(C(=O)O)c1)NC(=O)[C@H](Cc1ccccc1)NC(=O)OC(C)(C)C (some centres undefined)	81	78	0	2	108		84
CCCCCNC(=O)[C@H](Cc1ccc(OC(C(=O)O)C(=O)O)cc1)NC(=O)[C@H](Cc1ccc(C(=O)c2ccccc2)cc1)NC(=O)CCC(=O)O		98	26	71			98
CCCCCNC(=O)C(Cc1ccc(OC(C(=O)O)C(=O)O)cc1)NC(=O)CCC(=O)O (centres undefined)		80	2			8	76
CCCCCNC(=O)C(Cc1ccc(OCC(=O)O)c(C(=O)O)c1)NC(=O)CCC(=O)O (centres undefined)		87	0	5			93
CCCCCNC(=O)C(Cc1ccc(OC(C(=O)O)C(=O)O)cc1)NC(=O)[C@H](C)NC(=O)OC(C)(C)C (some centres undefined)		83	0	3			76
O=C(O)CCC(=O)NC(Cc1ccc(OC(C(=O)O)C(=O)O)cc1)C(=O)NCc1ccc(C(F)(F)F)cc1 (centres undefined)			4	15			66
NS(=O)(=O)c1ccc(CCNC(=O)C(Cc2ccc(OC(C(=O)O)C(=O)O)cc2)NC(=O)CCC(=O)O)cc1 (centres undefined)			5	17			63
CCCCCNC(=O)C(Cc1ccc(OC(C(=O)O)C(=O)O)cc1)NC(=O)[C@H]1CCCC[C@H]1C(=O)O (some centres undefined)			8	13			62
O=C(O)CCC(=O)NC(Cc1ccc(OC(C(=O)O)C(=O)O)cc1)C(=O)NCCCN1CCOCC1 (centres undefined)			0	2			35
CCCCCNC(=O)C(Cc1ccc(OC(C(=O)O)C(=O)O)cc1)NC(=O)[C@H](CC(=O)O)NC(=O)CCC(=O)O (some centres undefined)		95	7	25			96
CCCCCNC(=O)C(Cc1ccc(OC(C(=O)O)C(=O)O)cc1)NC(=O)CC(=O)O (centres undefined)			7	13			74
CCCCCNC(=O)C(Cc1ccc(OC(C(=O)O)C(=O)O)cc1)NC(=O)[C@H](Cc1ccc(OCc2ccccc2)cc1)NC(=O)CCC(=O)O (some centres undefined)			28	33			98
CCCCCNC(=O)C(Cc1ccc(OC(C(=O)O)C(=O)O)cc1)NC(=O)[C@H](COc1ccc(Cc2cc(Cl)ccc2Cl)cc1)NC(=O)CCC(=O)O (some centres undefined)			33	28			98
O=C(O)CCC(=O)NC(Cc1ccc(OC(C(=O)O)C(=O)O)cc1)C(=O)NCCCn1ccnc1 (centres undefined)			3	1			26
CCCCCNC(=O)C(Cc1ccc(OC(C(=O)O)C(=O)O)cc1)NC(=O)[C@H](Cc1ccccc1)NC(=O)CCC(=O)O (some centres undefined)		99	23	44			97
CCCCCNC(=O)C(Cc1ccc(OC(C(=O)O)C(=O)O)cc1)NC(=O)[C@H](CCC(=O)O)NC(=O)OC(C)(C)C (some centres undefined)			11	14			83
